According to article PMC5007443, “TNIK inhibition abrogates colorectal cancer stemness” (Nature Communications, 2016):

How the values were obtained:
[1] = tested on: Wnt target genes (AXIN2, MYC, CCND1) and TNIK; experiment: RT-PCR of TNIK and Wnt target genes in HCT116 cells; format: cell-based, human; conditions: HCT116, 24 h
Protocol: (§1) Total RNA was prepared with an RNeasy Mini Kit (Qiagen). cDNA was synthesized using SuperScript II reverse transcriptase (Thermo Fisher Scientific) or a High-Capacity cDNA reverse transcription kit (Thermo Fisher Scientific) and subjected to TaqMan gene expression assay using pre-designed primer and probe sets (listed in Supplementary Table 3). Amplification data measured as an increase in reporter fluorescence were collected using the StepOne Real-Time PCR System (Thermo Fisher Scientific). The relative mRNA expression level normalized to the internal control (human/mouse β-actin (ACTB/Actb1) gene) was calculated by the comparative threshold cycle (CT) method. Experiments were performed in triplicate and repeated at least two times.

[2] = tested on: Wnt-target genes (AXIN2, MYC and CCND1); experiment: Pharmacodynamics: Wnt-target gene expression in HCT116 xenografts, RT-PCR; format: in vivo, mouse; conditions: single oral dose 90 or 150 mg kg−1 NCB-0846 HCl
Protocol: as §1

[3] = tested on: HCT116 cells; experiment: Immunoblotting of CSC, mesenchymal and embryonal stem cell markers in HCT116 cells; format: cell-based, human; conditions: HCT116, 3 μM, 48 or 72 h
Protocol: Protein samples were fractionated by SDS–PAGE and blotted onto Immobilon-P membranes (Millipore) as described previously. After incubation with the primary antibodies (listed in Supplementary Table 4) at 4 °C overnight, the blots were detected with the relevant horseradish peroxidase-conjugated anti-mouse or anti-rabbit IgG antibody (Cell Signaling Technology) and Western lighting ECL Pro (PerkinElmer). Signals were visualized with the LAS-4010 system (GE Healthcare). Uncropped versions of the blots in Figs 2e and 3f are shown in Supplementary Fig. 15.

[4] = biological target: AMPKα1/β1/γ1 (Homo sapiens, UniProt Q13131); experiment: Kinase selectivity profiling, AMP-activated protein kinase; format: biochemical; conditions: read-out: Percentage inhibition of AMPKα1/β1/γ1
Protocol: (§2) The selectivity of compounds against a panel of 50 human protein kinases was assessed using a non-radiometric assay.

[5] = biological target: ITK (Homo sapiens, UniProt Q08881); experiment: Kinase selectivity profiling, IL2-inducible T-cell kinase; format: biochemical; conditions: read-out: Percentage inhibition of ITK
Protocol: as §2

[6] = tested on: patient-derived colon cancer spheroid #6 xenograft; experiment: Xenograft of patient-derived spheroid #6 in NOD/ShiJic-scid mice; format: in vivo, mouse; conditions: NCB-0846 HCl oral 50 or 100 mg kg−1 BID, 6-days-on, 1-day-off
From the text: Patient-derived colorectal cancer spheroids were dissociated, resuspended in medium containing 50% Matrigel (Corning), and inoculated subcutaneously (#6; 1 × 10^4 cells per injection, #19; 1 × 10^5 cells per injection) into the flank of female NOD/ShiJic-scid mice (4-week-old females; CLEA Japan). When the tumour volume reached ∼200 mm^3, the mice were randomized according tumour volume (10 mice per group) and treatment was started.
(§3) Tumour volume was estimated based on the formula: (length × width^2)/2. The tumour volume (twice a week) and body weight (every day) of each mouse were recorded. The patient-derived spheroids and xenografts were established after obtaining informed consent from the donors.

[7] = biological target: ABL (Homo sapiens, UniProt P00519); experiment: Kinase selectivity profiling, c-Abl oncogene 1; format: biochemical; conditions: read-out: Percentage inhibition of ABL
Protocol: as §2

[8] = biological target: AKT1 (Homo sapiens, UniProt P31749); experiment: Kinase selectivity profiling, v-Akt murine thymoma viral oncogene homolog 1; format: biochemical; conditions: read-out: Percentage inhibition of AKT1
Protocol: as §2

[9] = biological target: DYRK1B (Homo sapiens, UniProt Q9Y463); experiment: Kinase selectivity profiling, Dual-specificity tyrosine-phosphorylation regulated kinase 1B; format: biochemical; conditions: read-out: Percentage inhibition of DYRK1B
Protocol: as §2

[10] = tested on: CD44 and Ki67 expression in xenografts; experiment: Immunohistochemistry of spheroid #6 xenografts; format: in vivo, mouse; conditions: spheroid #6 xenografts resected after treatment
Protocol: Immunoperoxidase staining (Fig. 6g) was performed using the Ventana DABMap detection kit and an automated slide stainer (Discovery XT, Ventana Medical Systems)[56].

[11] = tested on: TCF/LEF transcriptional activity; experiment: TCF/LEF luciferase reporter in Wnt3a-treated HEK293 cells; format: cell-based, human; conditions: Wnt3a-treated HEK293, 24 h
Protocol: HEK293 cells were transiently transfected with pGL4.49[luc2P/TCF-LEF-RE/Hygro] reporter vector (Promega) using Fugene HD Transfection Reagent (Promega; Fig. 2f). After overnight incubation, the cells were then treated with 10 mM LiCl (Sigma-Aldrich). Luciferase activity was measured using the ONE-Glo Luciferase Assay System (Promega). The assay was performed in triplicate and repeated at least two times.
In some experiments cells were treated with mouse Wnt3a (PeproTech) (Fig. 1c) or human Wnt3a (R&D Systems; Fig. 2f) before the measurements, as indicated in the figure legends.

[12] = tested on: Apc^min/+ mice; experiment: Intestinal tumorigenesis in Apc min/+ mice; format: in vivo, mouse; conditions: NCB-0846 HCl oral BID 22.5, 45, 90 mg kg−1, 35 days
Protocol: The mouse gut was filled with 10% buffered formalin (Sigma-Aldrich) via the anus immediately after sacrifice and opened longitudinally. The number and maximum diameter/area of tumours were measured by stereoscopic microscopy as described previously. Differences at P values of<0.05 were considered to be statistically significant.

[13] = tested on: HCT116 cells; experiment: CSC surface marker flow cytometry in HCT116 cells; format: cell-based, human; conditions: HCT116, 1 µM, 96 hours
Protocol: Cells were collected with Accutase, washed with stain buffer (BD Pharmingen), resuspended in 100 μl stain buffer (5 × 10^5 cells per 100 μl), and incubated with fluorophore-conjugated antibodies or their corresponding isotype-matched control antibodies (Supplementary Table 4) at 4 °C for 30 min. The cells were then washed twice and resuspended in 500 μl of stain buffer. 7-Aminoactinomycin D (7AAD; BD Pharmingen) was added to the samples before analysis. Relative fluorescence intensities were measured using a Guava easy Cyte HT flow cytometer following exclusion of dead cells on the basis of 7AAD incorporation. Data analysis was performed using Guava InCyte software (Merck-Millipore). Experiments were performed in triplicate and repeated at least two times.

[14] = biological target: MET (Homo sapiens, UniProt P08581); experiment: Kinase selectivity profiling, Hepatocyte growth factor receptor; format: biochemical; conditions: read-out: Percentage inhibition of MET
Protocol: as §2

[15] = biological target: PDGFRα (Homo sapiens, UniProt P16234); experiment: Kinase selectivity profiling, Platelet-derived growth factor receptor α; format: biochemical; conditions: 0.1 µM inhibitor, ATP at Km; for inhibition at 0.1 µM: read-out: Percentage inhibition of PDGFRα
Protocol: as §2

[16] = tested on: PDX COX021; experiment: Patient-derived xenograft COX021 in Nu/Nu nude mice; format: in vivo, mouse; conditions: COX021, NCB-0846 HCl oral 45 or 90 mg/kg BID, 5-day on, 2-day off
Protocol: Patient-derived colorectal cancer xenografts […] were established by Shanghai ChemPartner. Female Nu/Nu nude mice aged 5–6 weeks were implanted subcutaneously with the xenografts and randomized into three treatment groups (10 mice per group) based on the developed tumour volume (∼200 mm^3).
as §3

PDGFRα, sequence (P16234 24-1089): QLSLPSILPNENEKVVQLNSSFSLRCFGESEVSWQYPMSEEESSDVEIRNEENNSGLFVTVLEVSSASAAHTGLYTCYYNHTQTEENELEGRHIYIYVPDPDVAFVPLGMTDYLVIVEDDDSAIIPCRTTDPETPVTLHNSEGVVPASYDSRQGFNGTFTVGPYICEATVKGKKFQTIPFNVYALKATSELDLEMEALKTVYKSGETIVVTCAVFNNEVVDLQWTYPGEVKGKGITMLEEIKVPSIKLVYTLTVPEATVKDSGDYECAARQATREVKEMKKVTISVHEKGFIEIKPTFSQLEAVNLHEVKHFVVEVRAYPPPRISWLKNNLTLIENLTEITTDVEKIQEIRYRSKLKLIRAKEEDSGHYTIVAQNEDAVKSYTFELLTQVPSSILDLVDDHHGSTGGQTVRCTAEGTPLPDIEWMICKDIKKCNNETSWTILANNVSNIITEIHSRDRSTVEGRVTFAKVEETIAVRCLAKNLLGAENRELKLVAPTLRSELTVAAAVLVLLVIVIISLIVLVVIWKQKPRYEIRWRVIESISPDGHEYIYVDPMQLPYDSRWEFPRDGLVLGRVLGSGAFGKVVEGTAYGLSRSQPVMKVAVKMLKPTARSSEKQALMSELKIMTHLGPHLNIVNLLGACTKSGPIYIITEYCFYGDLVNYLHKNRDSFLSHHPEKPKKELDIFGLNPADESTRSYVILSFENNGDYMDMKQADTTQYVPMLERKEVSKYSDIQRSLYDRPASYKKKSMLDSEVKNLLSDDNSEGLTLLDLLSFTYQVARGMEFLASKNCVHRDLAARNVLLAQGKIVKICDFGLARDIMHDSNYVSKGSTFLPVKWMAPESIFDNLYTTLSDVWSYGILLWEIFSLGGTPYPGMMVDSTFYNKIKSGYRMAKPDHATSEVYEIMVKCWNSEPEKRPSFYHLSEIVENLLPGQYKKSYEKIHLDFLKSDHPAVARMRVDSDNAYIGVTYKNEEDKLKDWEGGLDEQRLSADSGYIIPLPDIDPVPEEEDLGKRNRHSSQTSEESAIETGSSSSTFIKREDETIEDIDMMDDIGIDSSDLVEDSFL
MET, sequence (P08581 25-1390): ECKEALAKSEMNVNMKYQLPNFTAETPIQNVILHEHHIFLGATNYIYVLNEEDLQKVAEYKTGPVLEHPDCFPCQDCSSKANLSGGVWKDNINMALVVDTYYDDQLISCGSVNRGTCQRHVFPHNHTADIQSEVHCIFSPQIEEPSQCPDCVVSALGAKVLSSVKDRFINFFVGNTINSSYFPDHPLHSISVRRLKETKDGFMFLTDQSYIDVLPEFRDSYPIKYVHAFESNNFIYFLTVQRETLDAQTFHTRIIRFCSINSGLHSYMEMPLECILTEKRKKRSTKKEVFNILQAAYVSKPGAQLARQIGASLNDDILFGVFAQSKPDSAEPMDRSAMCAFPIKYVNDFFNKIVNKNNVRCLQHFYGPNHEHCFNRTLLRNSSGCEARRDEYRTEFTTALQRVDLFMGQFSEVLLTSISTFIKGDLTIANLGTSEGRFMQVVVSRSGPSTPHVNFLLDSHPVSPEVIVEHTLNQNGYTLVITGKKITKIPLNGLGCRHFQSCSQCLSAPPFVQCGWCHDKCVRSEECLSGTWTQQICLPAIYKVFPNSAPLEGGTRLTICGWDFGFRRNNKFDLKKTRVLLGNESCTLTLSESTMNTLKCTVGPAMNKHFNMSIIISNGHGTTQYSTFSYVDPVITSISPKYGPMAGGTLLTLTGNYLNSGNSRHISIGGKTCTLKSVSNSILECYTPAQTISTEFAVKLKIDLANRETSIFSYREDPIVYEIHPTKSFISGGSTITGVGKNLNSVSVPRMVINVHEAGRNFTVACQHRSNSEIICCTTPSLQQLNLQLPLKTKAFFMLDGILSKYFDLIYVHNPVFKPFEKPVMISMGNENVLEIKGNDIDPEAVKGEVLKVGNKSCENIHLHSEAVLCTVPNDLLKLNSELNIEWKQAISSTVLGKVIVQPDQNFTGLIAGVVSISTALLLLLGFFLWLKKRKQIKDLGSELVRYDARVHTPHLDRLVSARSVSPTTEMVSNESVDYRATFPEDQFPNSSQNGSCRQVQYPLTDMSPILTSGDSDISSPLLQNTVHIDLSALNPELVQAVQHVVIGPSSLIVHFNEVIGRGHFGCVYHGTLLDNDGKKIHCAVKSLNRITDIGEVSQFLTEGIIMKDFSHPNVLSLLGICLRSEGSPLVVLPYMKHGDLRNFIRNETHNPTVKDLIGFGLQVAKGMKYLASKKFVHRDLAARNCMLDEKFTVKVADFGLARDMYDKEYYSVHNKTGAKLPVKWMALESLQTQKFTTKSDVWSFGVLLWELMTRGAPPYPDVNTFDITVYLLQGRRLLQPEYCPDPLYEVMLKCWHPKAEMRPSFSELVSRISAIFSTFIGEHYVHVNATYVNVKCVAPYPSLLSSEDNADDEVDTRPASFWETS
ITK, sequence (Q08881 whole entry): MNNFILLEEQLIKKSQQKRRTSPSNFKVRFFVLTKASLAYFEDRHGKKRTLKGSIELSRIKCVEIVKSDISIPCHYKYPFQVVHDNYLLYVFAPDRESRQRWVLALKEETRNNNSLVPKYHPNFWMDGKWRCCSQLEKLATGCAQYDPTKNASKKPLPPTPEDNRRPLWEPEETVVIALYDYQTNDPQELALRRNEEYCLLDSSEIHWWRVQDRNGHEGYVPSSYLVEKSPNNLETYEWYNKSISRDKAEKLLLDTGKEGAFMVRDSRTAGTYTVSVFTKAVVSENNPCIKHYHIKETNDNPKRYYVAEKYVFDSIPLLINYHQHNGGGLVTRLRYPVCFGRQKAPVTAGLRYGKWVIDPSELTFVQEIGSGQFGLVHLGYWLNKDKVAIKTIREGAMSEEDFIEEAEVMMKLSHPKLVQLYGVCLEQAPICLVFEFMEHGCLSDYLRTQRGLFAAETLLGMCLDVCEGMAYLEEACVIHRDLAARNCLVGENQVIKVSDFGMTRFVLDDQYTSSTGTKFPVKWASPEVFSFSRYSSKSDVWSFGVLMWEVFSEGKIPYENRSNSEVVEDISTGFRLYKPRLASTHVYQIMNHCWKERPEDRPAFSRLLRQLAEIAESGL
DYRK1B, sequence (Q9Y463 whole entry): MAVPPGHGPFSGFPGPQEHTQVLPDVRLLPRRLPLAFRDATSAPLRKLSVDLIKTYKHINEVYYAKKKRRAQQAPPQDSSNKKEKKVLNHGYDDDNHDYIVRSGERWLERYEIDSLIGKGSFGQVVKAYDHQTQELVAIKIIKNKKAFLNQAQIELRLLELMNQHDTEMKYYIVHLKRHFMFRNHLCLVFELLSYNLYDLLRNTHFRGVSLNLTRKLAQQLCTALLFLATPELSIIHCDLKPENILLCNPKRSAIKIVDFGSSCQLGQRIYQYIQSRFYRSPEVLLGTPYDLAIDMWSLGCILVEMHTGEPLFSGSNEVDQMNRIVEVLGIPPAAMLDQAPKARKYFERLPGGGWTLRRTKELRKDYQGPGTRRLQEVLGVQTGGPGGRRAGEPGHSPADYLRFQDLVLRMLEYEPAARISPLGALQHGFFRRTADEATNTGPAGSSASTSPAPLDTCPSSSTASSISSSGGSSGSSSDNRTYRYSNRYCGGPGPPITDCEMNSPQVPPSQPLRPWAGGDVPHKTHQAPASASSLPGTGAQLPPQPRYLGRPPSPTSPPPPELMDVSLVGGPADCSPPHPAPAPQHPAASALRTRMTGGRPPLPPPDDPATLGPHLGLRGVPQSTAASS
AMPKα1/β1/γ1, sequence (Q13131 whole entry): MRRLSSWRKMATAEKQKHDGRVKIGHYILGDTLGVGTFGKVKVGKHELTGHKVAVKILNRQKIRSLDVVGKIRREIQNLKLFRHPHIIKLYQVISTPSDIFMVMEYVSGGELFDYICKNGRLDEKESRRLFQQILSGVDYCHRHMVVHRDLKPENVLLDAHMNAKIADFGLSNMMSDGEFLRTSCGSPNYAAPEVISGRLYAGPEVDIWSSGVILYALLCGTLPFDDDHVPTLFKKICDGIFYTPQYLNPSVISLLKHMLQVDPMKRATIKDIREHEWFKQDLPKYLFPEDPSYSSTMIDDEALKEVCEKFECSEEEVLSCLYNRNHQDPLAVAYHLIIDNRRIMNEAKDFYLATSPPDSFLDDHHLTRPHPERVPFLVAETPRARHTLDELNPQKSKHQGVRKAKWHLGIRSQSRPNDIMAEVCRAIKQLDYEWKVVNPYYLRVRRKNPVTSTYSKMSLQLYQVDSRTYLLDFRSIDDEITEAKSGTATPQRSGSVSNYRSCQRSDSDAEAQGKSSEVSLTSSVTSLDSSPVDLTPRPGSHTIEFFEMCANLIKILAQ
AMPKα1/β1/γ1, sequence (Q9Y478 whole entry partner): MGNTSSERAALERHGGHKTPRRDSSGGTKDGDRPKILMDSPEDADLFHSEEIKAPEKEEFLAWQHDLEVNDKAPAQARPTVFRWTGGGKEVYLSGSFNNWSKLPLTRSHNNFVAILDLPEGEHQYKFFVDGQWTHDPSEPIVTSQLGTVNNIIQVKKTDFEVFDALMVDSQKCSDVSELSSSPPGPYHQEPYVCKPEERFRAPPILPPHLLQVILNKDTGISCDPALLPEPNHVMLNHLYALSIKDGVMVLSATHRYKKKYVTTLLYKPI
AMPKα1/β1/γ1, sequence (P54619 whole entry partner): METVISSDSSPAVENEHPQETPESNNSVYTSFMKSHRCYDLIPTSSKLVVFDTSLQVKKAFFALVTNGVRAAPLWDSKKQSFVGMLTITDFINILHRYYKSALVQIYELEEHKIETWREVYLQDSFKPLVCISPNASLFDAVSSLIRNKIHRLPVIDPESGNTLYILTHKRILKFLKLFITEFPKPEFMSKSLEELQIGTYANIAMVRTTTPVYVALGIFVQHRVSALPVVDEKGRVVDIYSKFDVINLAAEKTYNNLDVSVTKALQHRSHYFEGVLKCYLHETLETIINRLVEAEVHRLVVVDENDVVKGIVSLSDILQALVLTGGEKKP

Structure (SMILES) | downregulation of expression of putative colorectal CSC markers CD44, CD133, ALDH1 [3] | inhibition at 0.1 µM [4] | inhibition at 0.1 µM [5] | inhibition at 0.1 µM [7] | inhibition at 0.1 µM [8] | inhibition at 0.1 µM [9] | inhibition at 0.1 µM [14] | inhibition at 0.1 µM [15] | further results
O[C@H]1CC[C@@H](Oc2cccc3cnc(Nc4ccc5nc[nH]c5c4)nc23)CC1 [NCB-0846, cis-4-(2-(3H-benzo[d]imidazol-5-ylamino)quinazolin-8-yloxy)cyclohexanol] | downregulated | 31.5% | 10% | 16.9% | -3.4% | 8.9% | 42.1% | > 80% | expression of AXIN2 gene [1]: reduced; expression of CCND1 gene [1]: not affected; expression of MYC gene [1]: reduced; expression of TNIK gene [1]: reduced; expression of Wnt-target genes (AXIN2, MYC and CCND1) in xenografts [2]: reduced; embryonal stem cell markers (Oct4, Nanog and Sox2) [3]: not affected; expression of mesenchymal markers (Slug, Snail, Twist, Smad2 and Vimentin) [3]: reduced; growth of tumours [6]: suppressed; CD44 expression in xenografts [10]: suppression; Ki67 expression in xenografts [10]: modest decrease; TCF/LEF transcriptional activity [11]: inhibited; effect on colon tumorigenesis [12]: not statistically significant; multiplicity and dimensions of tumours in the small intestine [12]: dose dependently reduced; proportion of cells showing high expression of CSC surface markers (CD44, CD133, CD166, CD29 and EpCAM) [13]: reduced; Percentage inhibition of PDGFRα ([15]; 0.1 µM): 89.0%; growth of the PDXs [16]: significantly suppressed
O[C@H]1CC[C@H](Oc2cccc3cnc(Nc4ccc5nc[nH]c5c4)nc23)CC1 [NCB-0970] | not | 9.3% | 9% | 3.9% | -4.4% | -2.4% | 16.1% | 45.6% | 
